In US6464988B1, “Glipizide-cyclodextrin inclusion complexes and their pharmaceutical composition” (USV Limited, priority 2001, dated 2002):

Assay: In-vitro dissolution studies (% release of glipizide)
Type: physicochemical
Details: containing 10 mg of Glipizide

Substance: 1-cyclohexyl -3-[[p-[2-(methylpyrazinecarboxamido)ethyl]phenyl]sulfonyl]urea [Glipizide]
- % release of glipizide (0.1N Hydrochloric acid, 200 ml, 5 mins): 14-18%
- % release of glipizide (0.1N Hydrochloric acid, 200 ml, 15 mins): 23-24%
- % release of glipizide (0.1N Hydrochloric acid, 200 ml, 30 mins): 23-26%
- % release of glipizide (0.1N Hydrochloric acid, 400 ml, 5 mins): 16-20%
- % release of glipizide (0.1N Hydrochloric acid, 400 ml, 15 mins): 26-27%
- % release of glipizide (0.1N Hydrochloric acid, 400 ml, 30 mins): 26-30%
- % release of glipizide (0.1N Hydrochloric acid, 900 ml, 5 mins): 16-18%
- % release of glipizide (0.1N Hydrochloric acid, 900 ml, 15 mins): 22-26%
- % release of glipizide (0.1N Hydrochloric acid, 900 ml, 30 mins): 24-27%
- % release of glipizide (Phosphate Buffer pH 6.8 USP, 200 ml, 5 mins): 23-27%
- % release of glipizide (Phosphate Buffer pH 6.8 USP, 200 ml, 15 mins): 65-67%
- % release of glipizide (Phosphate Buffer pH 6.8 USP, 200 ml, 30 mins): 64-67%
- % release of glipizide (Phosphate Buffer pH 6.8 USP, 400 ml, 5 mins): 24-29%
- % release of glipizide (Phosphate Buffer pH 6.8 USP, 400 ml, 15 mins): 64-69%
- % release of glipizide (Phosphate Buffer pH 6.8 USP, 400 ml, 30 mins): 65-67%
- % release of glipizide (Phosphate Buffer pH 6.8 USP, 900 ml, 5 mins): 25-28%
- % release of glipizide (Phosphate Buffer pH 6.8 USP, 900 ml, 15 mins): 55-62%
- % release of glipizide (Phosphate Buffer pH 6.8 USP, 900 ml, 30 mins): 65-68%
- % release of glipizide (Purified water pH 7.0, 200 ml, 5 mins): 30-32%
- % release of glipizide (Purified water pH 7.0, 200 ml, 15 mins): 38-40%
- % release of glipizide (Purified water pH 7.0, 200 ml, 30 mins): 39-41%
- % release of glipizide (Purified water pH 7.0, 400 ml, 5 mins): 32-34%
- % release of glipizide (Purified water pH 7.0, 400 ml, 15 mins): 40-42%
- % release of glipizide (Purified water pH 7.0, 400 ml, 30 mins): 40-44%
- % release of glipizide (Purified water pH 7.0, 900 ml, 5 mins): 20-25%
- % release of glipizide (Purified water pH 7.0, 900 ml, 15 mins): 30-33%
- % release of glipizide (Purified water pH 7.0, 900 ml, 30 mins): 38-41%
